Measured values published in patent US20020111274A1, “1-alkyl-3-[1-(substituted phenyl) benzotriazol-6-yl] uracils” (BASF Aktiengesellschaft, priority 2000, published 2002).

Assays:
Design in all cases: scale not given here
ABUTH Velvetleaf [1] = assay: Postemergence herbicidal evaluation, ABUTH; type: in vivo, Abutilon theophrasti, Medic.; conditions: postemergence spray, rated about two-three weeks after treatment
Outline: (§1)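 Seedlings grown about two weeks were sprayed with compound in 80/20 acetone/water containing 1.0% methylated seed oil, at the equivalent of about 0.006 to 0.400 kg/ha, through a nozzle at 40 psi. Plants were kept in the greenhouse and rated visually about two to three weeks after treatment.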

AMBEL Ragweed, Common [2] = assay: Postemergence herbicidal evaluation, AMBEL; type: in vivo, Ambrosia artemisifolia, L.; conditions: postemergence spray, rated about two-three weeks after treatment
Outline: as §1

SETVI Foxtail, Green [3] = assay: Postemergence herbicidal evaluation, SETVI; type: in vivo, Setaria viridis, (L.) Beau; conditions: postemergence spray, rated about two-three weeks after treatment
Outline: as §1

GLXMAW Soybean, Williams [4] = assay: Preemergence herbicidal evaluation, GLXMAW; type: in vivo, Glycine max, (L.) Merr. cv Williams; conditions: preemergence
Outline: (§2)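 Compound applied preemergence as an aqueous acetone spray onto freshly planted cups, dose equivalent approx. 0.013 to 0.800 kg/ha. Evaluation by rating at weeks 4–5.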

ZEAMX Corn, Field [5] = assay: Postemergence herbicidal evaluation, ZEAMX; type: in vivo, Zea mays, L. (Sammel-Bezeichnung); conditions: postemergence spray, rated about two-three weeks after treatment
Outline: as §1

ECHOG Barnyardgrass [6] = assay: Preemergence herbicidal evaluation, ECHOG; type: in vivo, Echinochloa crus-galli, (L.) Beau; conditions: preemergence
Outline: as §2

[7] = tested on: TRZAWR Wheat, Winter, cv Riband; assay: Postemergence herbicidal evaluation, TRZAWR; type: in vivo, Triticum aestivum; conditions: postemergence spray, rated about two-three weeks after treatment
Outline: as §1

[8] = tested on: IPOHE Morningglory, Ivyleaf; assay: Postemergence herbicidal evaluation, IPOHE; type: in vivo, Ipomoea hederacea, (L.) Jacq.; conditions: postemergence spray, rated about two-three weeks after treatment
Outline: as §1

[9] = tested on: CHEAL Lambsquarters, Common; assay: Postemergence herbicidal evaluation, CHEAL; type: in vivo, Chenopodium album, L.; conditions: postemergence spray, rated about two-three weeks after treatment
Outline: as §1

[10] = tested on: TRZAWR Wheat, Winter, cv Riband; assay: Preemergence herbicidal evaluation, TRZAWR; type: in vivo, Triticum aestivum; conditions: preemergence
Outline: as §2

GALAP Galium [11] = assay: Postemergence herbicidal evaluation, GALAP; type: in vivo, Galium aparine; conditions: postemergence spray, rated about two-three weeks after treatment
Outline: as §1

GLXMAW Soybean, Williams [12] = assay: Postemergence herbicidal evaluation, GLXMAW; type: in vivo, Glycine max, (L.) Merr. cv Williams; conditions: postemergence spray, rated about two-three weeks after treatment
Outline: as §1

CASOB Sicklepod [13] = assay: Postemergence herbicidal evaluation, CASOB; type: in vivo, Cassia obtusifolia, L.; conditions: postemergence spray, rated about two-three weeks after treatment
Outline: as §1

ORYSAT Rice, Tebonnet [14] = assay: Postemergence herbicidal evaluation, ORYSAT; type: in vivo, Oryza sativa, (L.); conditions: postemergence spray, rated about two-three weeks after treatment
Outline: as §1

AMBEL Ragweed, Common [15] = assay: Preemergence herbicidal evaluation, AMBEL; type: in vivo, Ambrosia artemisifolia, L.; conditions: preemergence
Outline: as §2

ORYSAT Rice, Tebonnet [16] = assay: Preemergence herbicidal evaluation, ORYSAT; type: in vivo, Oryza sativa, (L.); conditions: preemergence
Outline: as §2

SETVI Foxtail, Green [17] = assay: Preemergence herbicidal evaluation, SETVI; type: in vivo, Setaria viridis, (L.) Beau; conditions: preemergence
Outline: as §2

[18] = tested on: CHEAL Lambsquarters, Common; assay: Preemergence herbicidal evaluation, CHEAL; type: in vivo, Chenopodium album, L.; conditions: preemergence
Outline: as §2

ZEAMX Corn, Field [19] = assay: Preemergence herbicidal evaluation, ZEAMX; type: in vivo, Zea mays, L. (Sammel-Bezeichnung); conditions: preemergence
Outline: as §2

ECHOG Barnyardgrass [20] = assay: Postemergence herbicidal evaluation, ECHOG; type: in vivo, Echinochloa crus-galli, (L.) Beau; conditions: postemergence spray, rated about two-three weeks after treatment
Outline: as §1

[21] = tested on: IPOHE Morningglory, Ivyleaf; assay: Preemergence herbicidal evaluation, IPOHE; type: in vivo, Ipomoea hederacea, (L.) Jacq.; conditions: preemergence
Outline: as §2

GALAP Galium [22] = assay: Preemergence herbicidal evaluation, GALAP; type: in vivo, Galium aparine; conditions: preemergence
Outline: as §2

CASOB Sicklepod [23] = assay: Preemergence herbicidal evaluation, CASOB; type: in vivo, Cassia obtusifolia, L.; conditions: preemergence
Outline: as §2

ABUTH Velvetleaf [24] = assay: Preemergence herbicidal evaluation, ABUTH; type: in vivo, Abutilon theophrasti, Medic.; conditions: preemergence
Outline: as §2

CC(C)c1ccc(-n2nnc3cc(F)c(-n4c(=O)cc(C(F)(F)F)n(C)c4=O)cc32)cc1 [Example 21]
Postemergence herbicidal rating ABUTH (ABUTH Velvetleaf [1]; 0.008 kg/ha): 9.0
Postemergence herbicidal rating ABUTH (ABUTH Velvetleaf [1]; 0.016 kg/ha): 9.0
Postemergence herbicidal rating ABUTH (ABUTH Velvetleaf [1]; 0.032 kg/ha): 9.0
Postemergence herbicidal rating ABUTH (ABUTH Velvetleaf [1]; 0.062 kg/ha): 9.0
Postemergence herbicidal rating AMBEL (AMBEL Ragweed, Common [2]; 0.008 kg/ha): 2.0
Postemergence herbicidal rating AMBEL (AMBEL Ragweed, Common [2]; 0.016 kg/ha): 9.0
Postemergence herbicidal rating AMBEL (AMBEL Ragweed, Common [2]; 0.032 kg/ha): 9.0
Postemergence herbicidal rating AMBEL (AMBEL Ragweed, Common [2]; 0.062 kg/ha): 9.0
Postemergence herbicidal rating SETVI (SETVI Foxtail, Green [3]; 0.008 kg/ha): 0.0
Postemergence herbicidal rating SETVI (SETVI Foxtail, Green [3]; 0.016 kg/ha): 0.0
Postemergence herbicidal rating SETVI (SETVI Foxtail, Green [3]; 0.032 kg/ha): 5.0
Postemergence herbicidal rating SETVI (SETVI Foxtail, Green [3]; 0.062 kg/ha): 5.0
GLXMAW herbicidal rating (GLXMAW Soybean, Williams [4]; rate 0.016 kg/ha): 0.0
GLXMAW herbicidal rating (GLXMAW Soybean, Williams [4]; rate 0.032 kg/ha): 0.0
GLXMAW herbicidal rating (GLXMAW Soybean, Williams [4]; rate 0.062 kg/ha): 0.5
GLXMAW herbicidal rating (GLXMAW Soybean, Williams [4]; rate 0.125 kg/ha): 1.0
Postemergence herbicidal rating ZEAMX (ZEAMX Corn, Field [5]; 0.008 kg/ha): 4.5
Postemergence herbicidal rating ZEAMX (ZEAMX Corn, Field [5]; 0.016 kg/ha): 4.5
Postemergence herbicidal rating ZEAMX (ZEAMX Corn, Field [5]; 0.032 kg/ha): 4.5
Postemergence herbicidal rating ZEAMX (ZEAMX Corn, Field [5]; 0.062 kg/ha): 5.0
ECHCG herbicidal rating (ECHOG Barnyardgrass [6]; rate 0.016 kg/ha): 0.0
ECHCG herbicidal rating (ECHOG Barnyardgrass [6]; rate 0.032 kg/ha): 0.0
ECHCG herbicidal rating (ECHOG Barnyardgrass [6]; rate 0.062 kg/ha): 1.0
ECHCG herbicidal rating (ECHOG Barnyardgrass [6]; rate 0.125 kg/ha): 3.5
Postemergence herbicidal rating TRZAWR ([7]; 0.008 kg/ha): 3.5
Postemergence herbicidal rating TRZAWR ([7]; 0.016 kg/ha): 4.0
Postemergence herbicidal rating TRZAWR ([7]; 0.032 kg/ha): 4.0
Postemergence herbicidal rating TRZAWR ([7]; 0.062 kg/ha): 4.0
Postemergence herbicidal rating IPOHE ([8]; 0.008 kg/ha): 9.0
Postemergence herbicidal rating IPOHE ([8]; 0.016 kg/ha): 9.0
Postemergence herbicidal rating IPOHE ([8]; 0.032 kg/ha): 6.0
Postemergence herbicidal rating IPOHE ([8]; 0.062 kg/ha): 9.0
Postemergence herbicidal rating CHEAL ([9]; 0.008 kg/ha): 8.0
Postemergence herbicidal rating CHEAL ([9]; 0.016 kg/ha): 4.0
Postemergence herbicidal rating CHEAL ([9]; 0.032 kg/ha): 9.0
Postemergence herbicidal rating CHEAL ([9]; 0.062 kg/ha): 9.0
TRZAWR herbicidal rating ([10]; rate 0.016 kg/ha): 0.0
TRZAWR herbicidal rating ([10]; rate 0.032 kg/ha): 0.0
TRZAWR herbicidal rating ([10]; rate 0.062 kg/ha): 0.0
TRZAWR herbicidal rating ([10]; rate 0.125 kg/ha): 1.0
Postemergence herbicidal rating GALAP (GALAP Galium [11]; 0.008 kg/ha): 2.0
Postemergence herbicidal rating GALAP (GALAP Galium [11]; 0.016 kg/ha): 4.0
Postemergence herbicidal rating GALAP (GALAP Galium [11]; 0.032 kg/ha): 4.0
Postemergence herbicidal rating GALAP (GALAP Galium [11]; 0.062 kg/ha): 9.0
Postemergence herbicidal rating GLXMAW (GLXMAW Soybean, Williams [12]; 0.008 kg/ha): 4.5
Postemergence herbicidal rating GLXMAW (GLXMAW Soybean, Williams [12]; 0.016 kg/ha): 5.0
Postemergence herbicidal rating GLXMAW (GLXMAW Soybean, Williams [12]; 0.032 kg/ha): 5.5
Postemergence herbicidal rating GLXMAW (GLXMAW Soybean, Williams [12]; 0.062 kg/ha): 5.5
Postemergence herbicidal rating CASOB (CASOB Sicklepod [13]; 0.008 kg/ha): 0.0
Postemergence herbicidal rating CASOB (CASOB Sicklepod [13]; 0.016 kg/ha): 0.0
Postemergence herbicidal rating CASOB (CASOB Sicklepod [13]; 0.032 kg/ha): 1.0
Postemergence herbicidal rating CASOB (CASOB Sicklepod [13]; 0.062 kg/ha): 2.0
Postemergence herbicidal rating ORYSAT (ORYSAT Rice, Tebonnet [14]; 0.008 kg/ha): 3.0
Postemergence herbicidal rating ORYSAT (ORYSAT Rice, Tebonnet [14]; 0.016 kg/ha): 3.5
Postemergence herbicidal rating ORYSAT (ORYSAT Rice, Tebonnet [14]; 0.032 kg/ha): 3.5
Postemergence herbicidal rating ORYSAT (ORYSAT Rice, Tebonnet [14]; 0.062 kg/ha): 3.5
AMBEL herbicidal rating (AMBEL Ragweed, Common [15]; rate 0.016 kg/ha): 0.0
AMBEL herbicidal rating (AMBEL Ragweed, Common [15]; rate 0.032 kg/ha): 3.0
AMBEL herbicidal rating (AMBEL Ragweed, Common [15]; rate 0.062 kg/ha): 3.5
AMBEL herbicidal rating (AMBEL Ragweed, Common [15]; rate 0.125 kg/ha): 7.5
ORYSAT herbicidal rating (ORYSAT Rice, Tebonnet [16]; rate 0.016 kg/ha): 0.0
ORYSAT herbicidal rating (ORYSAT Rice, Tebonnet [16]; rate 0.032 kg/ha): 0.0
ORYSAT herbicidal rating (ORYSAT Rice, Tebonnet [16]; rate 0.062 kg/ha): 0.0
ORYSAT herbicidal rating (ORYSAT Rice, Tebonnet [16]; rate 0.125 kg/ha): 0.0
SETVI herbicidal rating (SETVI Foxtail, Green [17]; rate 0.016 kg/ha): 0.0
SETVI herbicidal rating (SETVI Foxtail, Green [17]; rate 0.032 kg/ha): 2.0
SETVI herbicidal rating (SETVI Foxtail, Green [17]; rate 0.062 kg/ha): 6.5
SETVI herbicidal rating (SETVI Foxtail, Green [17]; rate 0.125 kg/ha): 9.0
CHEAL herbicidal rating ([18]; rate 0.016 kg/ha): 9.0
CHEAL herbicidal rating ([18]; rate 0.032 kg/ha): 9.0
CHEAL herbicidal rating ([18]; rate 0.062 kg/ha): 9.0
CHEAL herbicidal rating ([18]; rate 0.125 kg/ha): 9.0
ZEAMX herbicidal rating (ZEAMX Corn, Field [19]; rate 0.016 kg/ha): 0.0
ZEAMX herbicidal rating (ZEAMX Corn, Field [19]; rate 0.032 kg/ha): 0.0
ZEAMX herbicidal rating (ZEAMX Corn, Field [19]; rate 0.062 kg/ha): 1.0
ZEAMX herbicidal rating (ZEAMX Corn, Field [19]; rate 0.125 kg/ha): 3.5
Postemergence herbicidal rating ECHCG (ECHOG Barnyardgrass [20]; 0.008 kg/ha): 0.0
Postemergence herbicidal rating ECHCG (ECHOG Barnyardgrass [20]; 0.016 kg/ha): 0.0
Postemergence herbicidal rating ECHCG (ECHOG Barnyardgrass [20]; 0.032 kg/ha): 0.0
Postemergence herbicidal rating ECHCG (ECHOG Barnyardgrass [20]; 0.062 kg/ha): 0.0
IPOHE herbicidal rating ([21]; rate 0.016 kg/ha): 0.0
IPOHE herbicidal rating ([21]; rate 0.032 kg/ha): 1.5
IPOHE herbicidal rating ([21]; rate 0.062 kg/ha): 2.0
IPOHE herbicidal rating ([21]; rate 0.125 kg/ha): 3.5
GALAP herbicidal rating (GALAP Galium [22]; rate 0.016 kg/ha): 0.0
GALAP herbicidal rating (GALAP Galium [22]; rate 0.032 kg/ha): 0.0
GALAP herbicidal rating (GALAP Galium [22]; rate 0.062 kg/ha): 0.0
GALAP herbicidal rating (GALAP Galium [22]; rate 0.125 kg/ha): 0.0
CASOB herbicidal rating (CASOB Sicklepod [23]; rate 0.016 kg/ha): 0.0
CASOB herbicidal rating (CASOB Sicklepod [23]; rate 0.032 kg/ha): 0.0
CASOB herbicidal rating (CASOB Sicklepod [23]; rate 0.062 kg/ha): 1.5
CASOB herbicidal rating (CASOB Sicklepod [23]; rate 0.125 kg/ha): 2.0
ABUTH herbicidal rating (ABUTH Velvetleaf [24]; rate 0.016 kg/ha): 0.0
ABUTH herbicidal rating (ABUTH Velvetleaf [24]; rate 0.032 kg/ha): 4.5
ABUTH herbicidal rating (ABUTH Velvetleaf [24]; rate 0.062 kg/ha): 6.0
ABUTH herbicidal rating (ABUTH Velvetleaf [24]; rate 0.125 kg/ha): 9.0
